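How tested: cells in 96-well plates exposed to compound for 48 hours at five concentrations. GI50: concentration for 50% inhibition of growth. TGI marks complete inhibition of growth.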

Some test systems named below: HOP-62 NSCLC; M14 melanoma; SF-295 CNS; SN12C renal; SW-620 colon; T-47D breast; TK-10 renal.
Assay in all cases: inhibition of tumour cell growth, NCI panel, 48 h

Regarding `COc1cc2nc3n(c2cc1OC)C(O)c1c(Cl)nc(SC)nc1S3` (stereo not given), the TGI with HOP-62 NSCLC was 26.1 µM; in the experiment with M14 melanoma it was 21.8 µM; in the experiment on SF-295 CNS it was greater than 94.5 µM; in the experiment with SN12C renal, 21 µM; in the experiment on SW-620 colon, 22.8 µM; in the experiment on T-47D breast, greater than 59 µM. For the same compound, in the experiment on TK-10 renal, the TGI is greater than 74 µM.

Consider `C=CCOC(=O)Cn1cnc2c(N)ncnc21`, for which the TGI in the experiment with HOP-62 NSCLC, in the experiment on M14 melanoma, in the experiment with SF-295 CNS, with SN12C renal, in the experiment on SW-620 colon and with T-47D breast was greater than 100 µM each time. Also, the TGI in the experiment with TK-10 renal is greater than 100 µM.

Consider `CC(=O)OCC1OC(n2c3c(c(-c4ccc(C)cc4)c(C#N)c2=S)C(=O)CC(C)(C)C3)C(OC(C)=O)C(OC(C)=O)C1OC(C)=O` (stereo not given), for which the TGI is greater than 100 µM in the experiment with HOP-62 NSCLC; greater than 100 µM in the experiment with M14 melanoma; 89 µM in the experiment on SF-295 CNS; 42.7 µM in the experiment with SN12C renal; greater than 100 µM with SW-620 colon; greater than 100 µM with TK-10 renal.

On to `COc1ccc2c(c1)/C(=C/c1c(O)[nH]c(=S)[nH]c1=O)C=N2`, for which the TGI in the experiment with HOP-62 NSCLC, in the experiment with M14 melanoma, in the experiment on SF-295 CNS, in the experiment on SN12C renal, in the experiment on SW-620 colon and in the experiment with T-47D breast was greater than 100 µM each time. The same compound yielded a TGI with TK-10 renal greater than 100 µM.

As to `O=C1c2ccccc2C(=O)N1/N=C1/SC(=Nc2ccccc2)C(=Nc2ccccc2)N1c1ccccc1`, the TGI in the experiment on HOP-62 NSCLC, in the experiment on M14 melanoma, in the experiment with SF-295 CNS, in the experiment with SN12C renal, in the experiment with SW-620 colon and with T-47D breast was greater than 100 µM each time. Also, in the experiment with TK-10 renal, the TGI was greater than 100 µM.

With `OCC(O)COCn1cc(Cn2ncc3c(SCc4ccccc4)ncnc32)nn1` (stereo not given), the TGI in the experiment with HOP-62 NSCLC, in the experiment on M14 melanoma, in the experiment on SF-295 CNS, in the experiment with SN12C renal, with SW-620 colon and with T-47D breast was greater than 100 µM each time. Further, the TGI in the experiment on TK-10 renal was greater than 100 µM.

As to `Cc1ccc(S(=O)(=O)n2cc(/C=C/C#N)c(-c3cn(S(=O)(=O)c4ccc(C)cc4)cc3-c3cn(S(=O)(=O)c4ccc(C)cc4)cc3/C=C/C#N)c2)cc1`, the TGI in the experiment on HOP-62 NSCLC, in the experiment with M14 melanoma, in the experiment on SF-295 CNS, in the experiment with SN12C renal, in the experiment with T-47D breast and in the experiment with TK-10 renal was greater than 100 µM in each case.

For `COc1ccc(/C=C/C(=O)c2cc(OC)cc(OC)c2)cc1`, the TGI worked out at 14.6 µM in the experiment with HOP-62 NSCLC; 6.83 µM in the experiment with M14 melanoma; 7.23 µM in the experiment on SF-295 CNS; 13.5 µM in the experiment with SN12C renal; 17.6 µM in the experiment on SW-620 colon; 11.9 µM with T-47D breast. The compound further returned a TGI in the experiment on TK-10 renal of 23.9 µM.

As to `COc1cc2c(cc1OS(C)(=O)=O)N=C[C@@H]1CCCN1C2=O`, the TGI in the experiment on M14 melanoma, in the experiment with SF-295 CNS, in the experiment on SN12C renal, in the experiment on SW-620 colon, with T-47D breast and in the experiment on TK-10 renal was greater than 100 µM throughout.

Regarding `CCOC(=O)c1nc2ccccc2nc1Oc1cc(OC)cc(OC)c1`, the TGI in the experiment on HOP-62 NSCLC, in the experiment on M14 melanoma, in the experiment on SF-295 CNS, with SN12C renal, in the experiment with SW-620 colon and in the experiment with T-47D breast was greater than 100 µM in each case. The same compound gave a TGI in the experiment on TK-10 renal greater than 100 µM.

On to `N#CC(C#N)=c1c(=O)c2c3ccccc3cc3cccc1c32`, for which the TGI with HOP-62 NSCLC, in the experiment with M14 melanoma, with SN12C renal, in the experiment on SW-620 colon and in the experiment on T-47D breast was greater than 100 µM throughout.

As to `CN1CCN(Cn2nc(COc3ccccc3Cl)n(/N=C/c3ccc(-c4ccc(Cl)cc4Cl)o3)c2=S)CC1`, the TGI in the experiment on HOP-62 NSCLC came to 45.7 µM; with M14 melanoma it was 81.7 µM; in the experiment on SF-295 CNS, 87.3 µM; in the experiment on SW-620 colon, 34.6 µM; in the experiment on T-47D breast, 55 µM; in the experiment with TK-10 renal it was 62.4 µM.

Take `CC(NCc1c(O)ccc2c(-c3ccccc3)cc(=O)oc12)C(=O)O` (stereo not given): the TGI with HOP-62 NSCLC, in the experiment with M14 melanoma, in the experiment on SF-295 CNS, in the experiment on SN12C renal, in the experiment on SW-620 colon and in the experiment on T-47D breast was greater than 100 µM throughout. This compound showed a TGI in the experiment on TK-10 renal greater than 100 µM.

As to `Cc1ccc(-c2n[nH]c(=O)n2/N=C\c2ccccc2O)cc1`, the TGI in the experiment with HOP-62 NSCLC, with M14 melanoma, in the experiment on SF-295 CNS, in the experiment with SN12C renal, in the experiment on SW-620 colon and in the experiment on T-47D breast was greater than 100 µM in each case. This compound also yielded a TGI in the experiment on TK-10 renal greater than 100 µM.

In the case of `CCCc1nnc2sc(COc3ccc(OCc4nn5c(CCC)nnc5s4)c(Cl)c3)nn12`, the TGI was greater than 100 µM with HOP-62 NSCLC; 73 µM in the experiment with M14 melanoma; greater than 100 µM in the experiment on SF-295 CNS; greater than 100 µM with SN12C renal; greater than 100 µM in the experiment with SW-620 colon; 39.6 µM in the experiment on T-47D breast. Besides, the TGI in the experiment on TK-10 renal is 93.5 µM.

As for `COC(=O)c1cc2ccc(O)c(O)c2cn1`, the TGI in the experiment with HOP-62 NSCLC turned out to be 36.2 µM; with M14 melanoma, 34.6 µM; in the experiment on SF-295 CNS it was 33.6 µM; in the experiment on SN12C renal it was 17.3 µM; in the experiment with SW-620 colon, 32.4 µM; in the experiment with TK-10 renal, 34.6 µM. In the experiment on SN12C renal, the GI50 is 5.22 µM.

In the case of `N#Cc1cc2c(cc1C#N)SCCSCCCSCCS2`, the TGI was 4.95 µM in the experiment on HOP-62 NSCLC; greater than 100 µM with M14 melanoma; 18.3 µM in the experiment with SF-295 CNS; greater than 100 µM with SN12C renal; greater than 100 µM in the experiment on SW-620 colon; greater than 80.8 µM with T-47D breast. This compound showed a TGI in the experiment on TK-10 renal of 14.3 µM.

Turning to `CC1=C(O)C(=O)C=C2C1=CC=C1[C@@]2(C)CC[C@@]2(C)C3C[C@@H](C)C(=O)[C@@H](O)[C@]3(C)CC[C@]12C` (stereo not given in full), the TGI in the experiment with HOP-62 NSCLC was 11.6 µM; in the experiment on M14 melanoma, 3.26 µM; with SF-295 CNS, 13.4 µM; with SN12C renal, 4.89 µM; in the experiment on SW-620 colon, 2.32 µM; in the experiment with T-47D breast it was 3.44 µM. This compound displayed a TGI in the experiment with TK-10 renal of 3.82 µM.

These data come from PubChem BioAssay (NCI).
